Assay results from US7612107B2, “Treatment and inhibition of disease conditions using flexible heteroarotinoids” (The Board of Regents of the University of Oklahoma, priority 2005, dated 2009).

How the values were obtained:
[1] = system: ovarian cancer cells; assay: Microarray analysis of gene expression in SHetA2-treated ovarian cancer cells; assay type: cell-based, Homo sapiens
Method: Microarray analysis was conducted to determine specific disease causing genes which were expressed at higher (>1 fold) or lower (<1 fold) levels than normal in ovarian cancer cells treated with SHetA2 (see Table 6).

[2] = system: SW962 vulvar carcinoma cultures; assay: Annexin-V-Fluos apoptosis assay; assay type: cell-based; details: cancer cell lines
Method: SW962 vulvar carcinoma cultures were treated with 10 μM of the indicated retinoid or the same volume of solvent. At the specified times, the cultures were labeled with Annexin-V-Fluos and propidium iodide (PI), and the number of apoptotic cells was quantified using dual-laser flow cytometric analysis.
The TUNEL assay was used to evaluate apoptosis in fixed, paraffin embedded, cut sections of the treated and control cultures (FIG. 17). […] These two cellular outcomes appeared to be mutually exclusive.

[3] = Genbank AI358954, Neuromuscular Diseases

SMILES: CC1(C)CC(C)(C)c2cc(NC(=S)Nc3ccc([N+](=O)[O-])cc3)ccc2S1 [SHetA2]
- Fold: Putative c-Myc-responsive (RCL) ([1]; Genbank AA523444, Cancer): 0.41 Fold
- Fold: Myeloidlymphoid or mixed-lineage leukemia (trithorax (Drosophila) homolog); translocated to, 4 (HGC6.3) ([1]; Genbank AB016902.2, Cancer): 5.07 Fold
- Fold: Vascular endothelial growth factor (VEGF) ([1]; Genbank AF022375.1): 0.47 Fold
- Fold: METH1 protein (METH1), contain a repeated amino acid motif homologous to the anti-angiogenic type 1 repeats of thromospondin-1 (TSP1) ([1]; Genbank AF060152.1): 0.39 Fold
- Fold: EHT protein ([1]; Genbank AF068266.1, Cancer): 2.80 Fold
- Fold: Familial Mediterranean fever locus region ([1]; Genbank AF098968.1, Autoimmune Diseases): 0.30 Fold
- Fold: Myeloidlymphoid leukemia 2 (MLL2) ([1]; Genbank AF105279.1, Cancer): 0.31 Fold
- Fold: Glypican-6 (GPC6) ([1]; Genbank AF111178.1): 2.07 Fold
- Fold: Hemochromatosis splice variant 495-2314del, Iron Storage Disorder ([1]; Genbank AF144243.1, Storage and Metabolism Deficiencies): 3.01 Fold
- Fold: BAGE2 antigen (BAGE2) ([1]; Genbank AF218570.1, Cancer): 0.34 Fold
- Fold: Prothymosin alpha (PTMA) ([1]; Genbank AF257099, Polycystic Kidney Disease): 2.60 Fold
- Fold: Deleted in lymphocytic leukemia, 2/DEF = Homo sapiens BCMS-upstream neighbor (BCMSUN) ([1]; Genbank AF264787.1, Cancer): 0.33 Fold
- Fold: Deleted in lymphocytic leukemia, BCMS-upstream neighbor (BCMSUN) (DLEU2) ([1]; Genbank AF264787.1, Cancer): 0.40 Fold
- Fold: PNAS-128 in leukemia ([1]; Genbank AF277186.1, Cancer): 0.36 Fold
- Fold: BAM in multiple myeloma ([1]; Genbank AF455755.1, Cancer): 3.05 Fold
- Fold: Cervical cancer suppressor gene-4 protein (HCCS-4) ([1]; Genbank AF465843.1, Cancer): 2.06 Fold
- Fold: FLJ23538 fis, highly similar to BETA2 Human MEN1(Multiple Endocrine Neoplasia) region clone epsilonbeta (BETA2) ([1]; Genbank AI042152, Cancer): 0.31 Fold
- Fold: ESTs, Moderately similar to S72399 ras-homolog GTPase rab28 isoform S ([1]; Genbank AI080106, Cancer): 7.75 Fold
- Fold: Prostate cancer associated protein 5 (PCANAP5) ([1]; Genbank AI299378, Cancer): 0.23 Fold
- Fold: ESTs, Weakly similar to DRPL_Human Atrophin-1 (DRPL) in Huntington's disease (HD) and dentatorubral and pallidoluysian atrophy (DRPLA) dentatorubral-pallidoluysian atrophy [1, 3]: 2.52 Fold
- Fold: ESTs, Weakly similar to DRPL_Human Atrophin-1 (DRPL) in dentatorubral-pallidoluysian atrophy [1, 3]: 2.52 Fold
- Fold: B-cell CLLlymphoma 3 (BCL3) ([1]; Genbank AI829875, Cancer): 2.58 Fold
- Fold: Lipoma cell line Li-538SV40 ectopic sequence from HMGI-C fusion mRNA, 3 sequence (LI) ([1]; Genbank AI990940, Cancer): 0.47 Fold
- Fold: Butyrophilin, subfamily 3, member A2 (BTN3A2) milk protein ([1]; Genbank AI991252, Autoimmune Diseases): 2.31 Fold
- Fold: Disintegrin-like and metalloprotease (reprolysin type) with thrombospondin type 1 motif, highly similar to Homo sapiens metalloproteinase with thrombospondin type 1 motifs (ADAMTS1) ([1]; Genbank AK023795.1): 0.43 Fold
- Fold: 3-hydroxyisobutyrate dehydrogenase, mitochondrial precursor ([1]; Genbank AK025558): 0.00 Fold
- Fold: NICE-5 protein ([1]; Genbank AW779859, Cancer): 0.48 Fold
- Fold: ASPLTFE3 type 2 fusion protein, ASPLTFE3 type 1 fusion protein mRNA in Sarcoma ([1]; Genbank AY034077.1, Cancer): 0.46 Fold
- Fold: RASSF3 isoform A, putative tumor suppressor ([1]; Genbank AY062002.1, Cancer): 2.88 Fold
- Fold: A kinase (PRKA) anchor protein 1, clone MGC: 1807 ([1]; Genbank BC000729.1): 2.00 Fold
- Fold: IMAGE: 3050107 mRNA, TBC1 domain family ([1]; Genbank BC001525, Cancer): 0.67 Fold
- Fold: v-Myc avian myelocytomatosis viral related oncogene, neuroblastoma derived (MYCN) ([1]; Genbank BC002712.1, Cancer): 3.99 Fold
- Fold: aarF domain containing kinase 4 ([1]; Genbank BC013114): 2.30 Fold
- Fold: Similar to vitelliform macular dystrophy (Best disease, bestrophin) ([1]; Genbank BC041664.1, Eye Diseases): 0.26 Fold
- Fold: Thrombospondin 1 (THBS1) ([1]; Genbank BE999967): 0.42 Fold
- Fold: SNRPN upstream reading frame (SNURF) in Prader-Willi and Angelman syndrome ([1]; Genbank BF114870, Neuromuscular Diseases): 0.39 Fold
- Fold: Novel MAFF (v-maf musculoaponeurotic fibrosarcoma (avian) oncogene family, protein F) LIKE protein ([1]; Genbank Cluster Incl. AL021977, Cancer): 0.47 Fold
- Fold: Butyrophilin (BTF3) - Milk Fat ([1]; Genbank Cluster Incl. U90548, Autoimmune Diseases): 2.15 Fold
- Fold: Facioscapulohumeral muscular dystrophy (FSHD) gene region, D4Z4 tandem repeat unit ([1]; Genbank D38024, Skeletal Diseases): 2.43 Fold
- Fold: FYN oncogene related to SRC, FGR and YES, c-syn protooncogene ([1]; Genbank M14333.1, Cancer): 0.44 Fold
- Fold: Nephropontin inhibits urine crystals - kidney stones ([1]; Genbank M83248.1, Storage and Metabolism Deficiencies): 2.34 Fold
- Fold: FYN oncogene related to SRC, FGR and YES (FYN) ([1]; Genbank N20923, Cancer): 0.13 Fold
- Fold: Sarcoglycan, gamma (35 kD dystrophin-associated glycoprotein) (Muscular Dystrophy) ([1]; Genbank NM_000231.1, Skeletal Diseases): 0.04 Fold
- Fold: Retinitis pigmentosa GTPase regulator (RPGR) ([1]; Genbank NM_000328.1, Eye Diseases): 0.47 Fold
- Fold: UDP-galactose-4-epimerase in epimerase-deficiency galactosemia ([1]; Genbank NM_000403, Storage and Metabolism Deficiencies): 0.66 Fold
- Fold: Sulfite oxidase (SUOX), nuclear gene encoding mitochondrial protein ([1]; Genbank NM_000456.1): 2.11 Fold
- Fold: Galactosamine (N-acetyl)-6-sulfate sulfatase in Morquio syndrome, mucopolysaccharidosis type IVA ([1]; Genbank NM_000512, Storage and Metabolism Deficiencies): 0.52 Fold
- Fold: Regulatory factor X-associated protein (RFXAP)in bare lymphocyte syndrome ([1]; Genbank NM_000538.1, Autoimmune Diseases): 0.41 Fold
- Fold: Endothelial cell growth factor 1 (platelet-derived)/Thymidine phosphorylase ([1]; Genbank NM_001953): 0.42 Fold
- Fold: Figroblast growth factor 2 (basic)(FGF2) ([1]; Genbank NM_002006.1): 0.35 Fold
- Fold: Promyelocytic leukemia (PML) ([1]; Genbank NM_002675.1, Cancer): 2.76 Fold
- Fold: Transglutaminase 4 (prostate) ([1]; Genbank NM_003241, Cancer): 0.24 Fold
- Fold: Thrombospondin 4 ([1]; Genbank NM_003248): 0.58 Fold
- Fold: Thromospondin 4 (THBS4) ([1]; Genbank NM_03248.1): 2.58 Fold
- Fold: Dysferlin, limb girdle muscular dystrophy 2B (autosomal recessive) (DYSF) ([1]; Genbank NM_003494.1, Skeletal Diseases): 2.16 Fold
- Fold: Peroxisomal biogenesis factor 3 (PEX3) ([1]; Genbank NM_003630.1, Autoimmune Diseases): 0.43 Fold
- Fold: Fibroblast growth factor 18 (FGF18) ([1]; Genbank NM_003862.1): 2.75 Fold
- Fold: Dystrophin (muscular dystrophy, Duchenne and Becker types), dystrophin Dp40 isoform (DMD) ([1]; Genbank NM_004019.1, Skeletal Diseases): 2.76 Fold
- Fold: Vitelliform macular dystrophy (Best disease, bestrophin) (VMD2) ([1]; Genbank NM_004183.1, Eye Diseases): 0.28 Fold
- Fold: Smcx homolog, X chromosome (mouse) in nonsyndromic X-linked mental retardation ([1]; Genbank NM_004187, Neuromuscular Diseases): 0.61 Fold
- Fold: Enhancer of zeste (Drosophila) homolog 2 (EZH2) (USP14) ([1]; Genbank NM_004456.1, Cancer): 0.47 Fold
- Fold: Peroxisomal biogenesis factor 14 (PEX14) in peroxisome biogenesis disorders ([1]; Genbank NM_004565.1, Neuromuscular Diseases): 2.06 Fold
- Fold: ATP-binding cassette, sub-family D (ALD), member 2 (ABCD2) in X-linked adrenoleukodystrophy ([1]; Genbank NM_005164.1, Neuromuscular Diseases): 2.71 Fold
- Fold: B-cell CLLlymphoma 3 (BCL3) ([1]; Genbank NM_005178.1, Cancer): 2.05 Fold
- Fold: Neuroblastoma, suppression of tumorigenicity 1 (NBL1), ([1]; Genbank NM_005380.1, Cancer): 3.07 Fold
- Fold: ATP-binding cassette, sub-family B (MDRTAP), member 6 (ABCB6), nuclear gene encoding mitochondrial protein ([1]; Genbank NM_005689.1): 0.46 Fold
- Fold: N-cym protein ([1]; Genbank NM_006316, Cancer): 2.38 Fold
- Fold: Translocase of inner mitochondrial membrane 44 (yeast) homolog (TIM44) ([1]; Genbank NM_006351.1): 0.50 Fold
- Fold: Butyrophilin, subfamily 3, member A3 (BTN3A3) ([1]; Genbank NM_006994.2, Autoimmune Diseases): 2.04 Fold
- Fold: Keratocan (KERA) involved in cornea plana ([1]; Genbank NM_007035.2, Eye Diseases): 0.50 Fold
- Fold: Disintegrin-like and metalloprotease (reprolysin type) with thrombospondin type 1 motif (ADAMTS5) ([1]; Genbank NM_007038.1): 0.23 Fold
- Fold: Angiopoietin-like 2 (ANGPTL2) ([1]; Genbank NM_012098.1): 2.16 Fold
- Fold: Nasopharyngeal carcinoma susceptibility protein (LZ16) ([1]; Genbank NM_013275.1, Cancer): 0.41 Fold
- Fold: Trichorhinophalangeal syndrome I gene (TRPS1) ([1]; Genbank NM_014112.1, Skeletal Diseases): 0.36 Fold
- Fold: Rhabdoid tumor deletion region protein 1 (RTDR1) ([1]; Genbank NM_014433.1, Cancer): 2.20 Fold
- Fold: Amyotrophic lateral sclerosis 2 (juvenile) chromosome region, candidate 3 (ALS2CR3) ([1]; Genbank NM_015049.1, Neuromuscular Diseases): 0.41 Fold
- Fold: Chromosome 5 open reading frame 4 (C5ORF4), putative tumor suppressor ([1]; Genbank NM_016348.1, Cancer): 2.76 Fold
- Fold: Niban protein (NIBAN) (Renal carcinogenesis) ([1]; Genbank NM_022083.1, Cancer): 0.21 Fold
- Fold: RNA binding motif protein 5, putative tumor suppressor (LUCA15) ([1]; Genbank U23946.1, Cancer): 0.43 Fold
- Fold: A kinase anchor protein S-AKAP84 mRNA, nuclear gene encoding mitochondrial protein ([1]; Genbank U34074.1): 2.14 Fold
- Fold: Unknown protein mRNA within the p53 intron 1 ([1]; Genbank U58658.1, Cancer): 0.45 Fold
- Induction of apoptosis (Annexin-V-Fluos) [2]: same concentration range as 4-HPR
